From ChEMBL document CHEMBL3044540, “Synthesis and Fungicidal Activity of New 6-Alkyl-2-alkylamino-4H-1, 3, 2-benzodioxaphosphorin 2-Sulfides” (1998) come the findings set out here.

Holding throughout (type): functional
In assay [1] the test system is Pythium. The assay is described as follows: Antifungal activity against Pythium sp. assessed as growth inhibition at 10 ppm by agar dilution method. Conditions: read-out: GI. For orientation: Agar dilution tests growth on a series of plates holding different concentrations.
For assay [2], the system named is Pythium. Nature of the assay: Antifungal activity against Pythium sp. assessed as growth inhibition at 100 ppm by agar dilution method. Particulars: read-out: GI.
Assay [3] deals with Athelia rolfsii. Nature of the assay: Antifungal activity against Athelia rolfsii assessed as growth inhibition at 10 ppm by agar dilutopn method. Conditions: Agroathelia rolfsii; read-out: GI.
For assay [4], the system named is Athelia rolfsii. The assay is described as follows: Antifungal activity against Athelia rolfsii assessed as growth inhibition at 100 ppm by agar dilutopn method. Particulars: Agroathelia rolfsii; read-out: GI.

As to `CCCCNP1(=S)OCc2cc(CCCC)ccc2O1` (centres undefined), the figures for the inhibition of growth at 10 ppm with Pythium [1] and with Athelia rolfsii [3] were 5% and 44%, respectively. Besides, the inhibition of growth at 100 ppm in the assay with Pythium [2] is 33%; in the assay on Athelia rolfsii [4], 70%.

Regarding `CCCCc1ccc2c(c1)COP(=S)(NCC(C)C)O2` (centres undefined), the values for the inhibition of growth at 10 ppm in the assay with Pythium [1] and with Athelia rolfsii [3] were 8% and 22%, respectively. Moreover, the inhibition of growth at 100 ppm in the assay with Pythium [2] is 28%; in the assay on Athelia rolfsii [4], 48%.

Turning to `CCCCc1ccc2c(c1)COP(=S)(NC(C)CC)O2` (centres undefined), the inhibition of growth at 10 ppm with Pythium [1] was 33%; with Athelia rolfsii [3], 24%. Moreover, the inhibition of growth at 100 ppm in the assay on Pythium [2] was 38%; with Athelia rolfsii [4] it was 47%.

As for `CCCNP1(=S)OCc2cc(C(C)CC)ccc2O1` (centres undefined), the inhibition of growth at 10 ppm in the assay with Pythium [1] is 14%; in the assay with Athelia rolfsii [3] it was 48%. For the same compound, the inhibition of growth at 100 ppm worked out at 48% in the assay with Pythium [2] and 77% in the assay on Athelia rolfsii [4].

Turning to `CCC(C)c1ccc2c(c1)COP(=S)(NC(C)C)O2` (centres undefined), the results for the inhibition of growth at 10 ppm in the assay with Pythium [1] and with Athelia rolfsii [3] were 0% and 28%, respectively. The inhibition of growth at 100 ppm worked out at 48% with Pythium [2] and 75% in the assay with Athelia rolfsii [4].

As for `CCCCNP1(=S)OCc2cc(C(C)CC)ccc2O1` (centres undefined), the inhibition of growth at 10 ppm with Pythium [1] was determined as 4%; in the assay with Athelia rolfsii [3], 39%. In addition, the inhibition of growth at 100 ppm in the assay on Pythium [2] is 11%; in the assay with Athelia rolfsii [4], 63%.

`CCC(C)c1ccc2c(c1)COP(=S)(NCC(C)C)O2` (centres undefined): the figures for the inhibition of growth at 10 ppm in the assay with Pythium [1] and in the assay with Athelia rolfsii [3] were 0% and 31%, respectively. Also, the inhibition of growth at 100 ppm is 14% with Pythium [2] and 63% in the assay on Athelia rolfsii [4].

In the case of `CCC(C)NP1(=S)OCc2cc(C(C)CC)ccc2O1` (centres undefined), the inhibition of growth at 10 ppm in the assay with Pythium [1] and in the assay with Athelia rolfsii [3] was 0% each time. Moreover, the inhibition of growth at 100 ppm with Pythium [2] was found to be 7%; in the assay with Athelia rolfsii [4], 37%.

In the case of `CCCNP1(=S)OCc2cc(CCC)ccc2O1` (centres undefined), the figures for the inhibition of growth at 10 ppm in the assay on Pythium [1] and in the assay with Athelia rolfsii [3] were 66% and 63%, respectively. The inhibition of growth at 100 ppm came out at 87% in the assay with Pythium [2] and 92% with Athelia rolfsii [4].

As to `CCCc1ccc2c(c1)COP(=S)(NC(C)C)O2` (centres undefined), the inhibition of growth at 10 ppm in the assay on Pythium [1] turned out to be 59%; in the assay on Athelia rolfsii [3], 57%. Also, the values for the inhibition of growth at 100 ppm in the assay with Pythium [2] and with Athelia rolfsii [4] were 80% and 81%, respectively.

In the case of `CCCCNP1(=S)OCc2cc(CCC)ccc2O1` (centres undefined), the inhibition of growth at 10 ppm in the assay on Pythium [1] is 54%; with Athelia rolfsii [3] it was 66%. Besides, the inhibition of growth at 100 ppm is 65% with Pythium [2] and 76% in the assay on Athelia rolfsii [4].

As to `CCCc1ccc2c(c1)COP(=S)(NCC(C)C)O2` (centres undefined), the inhibition of growth at 10 ppm came out at 44% in the assay with Pythium [1] and 59% with Athelia rolfsii [3]. Besides, the inhibition of growth at 100 ppm is 57% with Pythium [2] and 79% with Athelia rolfsii [4].

For `CCCc1ccc2c(c1)COP(=S)(NC(C)CC)O2` (centres undefined), the inhibition of growth at 10 ppm in the assay with Pythium [1] and with Athelia rolfsii [3] was 44% each time. The inhibition of growth at 100 ppm with Pythium [2] came out at 59%; in the assay on Athelia rolfsii [4] it was 64%.

Turning to `CCCNP1(=S)OCc2cc(C(C)C)ccc2O1` (centres undefined), the inhibition of growth at 10 ppm with Pythium [1] was 57%; in the assay with Athelia rolfsii [3], 58%. Also, the inhibition of growth at 100 ppm in the assay with Pythium [2] amounted to 75%; in the assay with Athelia rolfsii [4], 90%.

With `CC(C)NP1(=S)OCc2cc(C(C)C)ccc2O1` (centres undefined), the inhibition of growth at 10 ppm in the assay with Pythium [1] was 53%; in the assay on Athelia rolfsii [3], 58%. Besides, the inhibition of growth at 100 ppm in the assay with Pythium [2] is 82%; in the assay on Athelia rolfsii [4], 90%.

`CCCCNP1(=S)OCc2cc(C(C)C)ccc2O1` (centres undefined): the values for the inhibition of growth at 10 ppm in the assay on Pythium [1] and in the assay on Athelia rolfsii [3] were 29% and 56%, respectively. The results for the inhibition of growth at 100 ppm with Pythium [2] and in the assay on Athelia rolfsii [4] were 49% and 70%, respectively.

Turning to `CC(C)CNP1(=S)OCc2cc(C(C)C)ccc2O1` (centres undefined), the inhibition of growth at 10 ppm in the assay on Pythium [1] is 14%; in the assay with Athelia rolfsii [3], 49%. Besides, the inhibition of growth at 100 ppm stood at 18% in the assay with Pythium [2] and 76% in the assay with Athelia rolfsii [4].

Consider `CCC(C)NP1(=S)OCc2cc(C(C)C)ccc2O1` (centres undefined), for which the inhibition of growth at 10 ppm with Pythium [1] was 11%; in the assay on Athelia rolfsii [3], 34%. In addition, the inhibition of growth at 100 ppm was determined as 43% in the assay on Pythium [2] and 68% with Athelia rolfsii [4].

Take `CCCCc1ccc2c(c1)COP(=S)(NCCC)O2` (centres undefined): the inhibition of growth at 10 ppm in the assay on Pythium [1] came out at 54%; in the assay on Athelia rolfsii [3], 55%. Besides, the inhibition of growth at 100 ppm worked out at 72% in the assay on Pythium [2] and 71% in the assay on Athelia rolfsii [4].

Consider `CCCCc1ccc2c(c1)COP(=S)(NC(C)C)O2` (centres undefined), for which the inhibition of growth at 10 ppm in the assay on Pythium [1] was 54%; in the assay on Athelia rolfsii [3], 42%. The results for the inhibition of growth at 100 ppm in the assay on Pythium [2] and in the assay on Athelia rolfsii [4] were 57% and 59%, respectively.

Take `CC(C)OP(=O)(OC(C)C)SCc1ccccc1` [IPROBENFOS]: the inhibition of growth at 10 ppm in the assay on Pythium [1] turned out to be 42%; in the assay on Athelia rolfsii [3], 69%. For the same compound, the figures for the inhibition of growth at 100 ppm in the assay with Pythium [2] and in the assay with Athelia rolfsii [4] were 89% and 100%, respectively.
